Experimental data taken from ChEMBL document CHEMBL1148933, “Tetradehydrohalicyclamine A and 22-hydroxyhalicyclamine A, new cytotoxic bis-piperidine alkaloids from a marine sponge Amphimedon sp” (J Nat Prod, 2004).

Test system: P388
Assay: Cytotoxicity against mouse P388 cells
Assay type: functional, cell-based

| Compound | IC50 [µg/mL] |
| --- | --- |
| C1=C\CCCCCC[C@@H]2CN3CC/C=C/C=C\CCCCc4cc(c[n+](c4)CC\C=C/1)[C@@H]2CC3.O=C(O)C(F)(F)F.O=C([O-])C(F)(F)F [TETRADEHYDROHALICYCLAMINE A] | 2.2 |
| C1=C2CCCC/C=C\C=C\CCN3CC[C@@H]4[C@H](CCCCCC/C=C\C=C/CCN(C2)C[C@H]14)C3.O=C(O)C(F)(F)F.O=C(O)C(F)(F)F [HALICYCLAMINE A TFA] | 0.45 |
